The values that follow come from PubChem BioAssay (NCI).

Structures are written as SMILES.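 Five compound concentrations were applied to cells in 96-well plates for 48 hours; endpoints were derived by simple linear interpolation of the resulting dose-response curve. At the GI50, growth is halved. TGI: total growth inhibition.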

Test systems include HCC-2998 colon; OVCAR-4 ovarian; A498 renal; IGROV1 ovarian; NCI-H460 lung; SK-OV-3 ovarian; KM12 colon; LOX IMVI melanoma; MOLT-4 leukemia; SK-MEL-2 melanoma.
Common to all, as to test: growth of human tumour cells (NCI), 48 h

Take `Cn1c2c(c3ccccc31)C1CCCCCCC1C1C(=O)OC(=O)C21` (stereo not given): the TGI is 70.3 µM in the experiment with HCC-2998 colon; above 100 µM with OVCAR-4 ovarian; above 100 µM in the experiment on A498 renal; 73.8 µM in the experiment with IGROV1 ovarian; above 100 µM in the experiment on NCI-H460 lung; above 100 µM in the experiment with SK-OV-3 ovarian. In addition, the TGI in the experiment with KM12 colon was above 100 µM; in the experiment on LOX IMVI melanoma, 51.2 µM; with MOLT-4 leukemia, 65.8 µM.
`O=C(OC(CNc1cc(=O)n(Cc2ccccc2)c(=O)n1Cc1ccccc1)CN1CCCC1)c1ccccc1` (stereo not given): the GI50 with HCC-2998 colon, in the experiment with OVCAR-4 ovarian, in the experiment with A498 renal, in the experiment with IGROV1 ovarian, in the experiment with NCI-H460 lung and in the experiment with SK-OV-3 ovarian was above 100 µM each time. Moreover, the GI50 in the experiment on SK-MEL-2 melanoma, in the experiment on KM12 colon, in the experiment on LOX IMVI melanoma and with MOLT-4 leukemia was above 100 µM each time. For the same molecule, the TGI with HCC-2998 colon, in the experiment on OVCAR-4 ovarian, in the experiment on A498 renal, in the experiment with IGROV1 ovarian, in the experiment on NCI-H460 lung and with SK-OV-3 ovarian was above 100 µM in each case. Also, the TGI in the experiment with SK-MEL-2 melanoma, with KM12 colon, with LOX IMVI melanoma and with MOLT-4 leukemia was above 100 µM in each case.
Consider `COc1cc(C2CC(c3cccc(Br)c3)=NN2C(C)=O)cc(OC)c1OC` (stereo not given), for which the GI50 in the experiment on HCC-2998 colon was 1.11 µM; in the experiment with OVCAR-4 ovarian it was 0.624 µM; with A498 renal, 0.514 µM; in the experiment on IGROV1 ovarian it was 2.04 µM; in the experiment on NCI-H460 lung, 0.344 µM; in the experiment on SK-OV-3 ovarian, 0.379 µM. Moreover, the GI50 with SK-MEL-2 melanoma was 3.51 µM; with KM12 colon it was 0.247 µM; with LOX IMVI melanoma, 0.719 µM; in the experiment with MOLT-4 leukemia it was 0.368 µM. Also, the TGI in the experiment with HCC-2998 colon was 15.7 µM; with OVCAR-4 ovarian, above 100 µM; in the experiment with A498 renal, above 19.7 µM; in the experiment on IGROV1 ovarian, above 100 µM; in the experiment with NCI-H460 lung, 11.7 µM; with SK-OV-3 ovarian, 47.2 µM. For the same molecule, the TGI in the experiment on SK-MEL-2 melanoma worked out at 55.5 µM; in the experiment with KM12 colon, 18 µM; in the experiment on LOX IMVI melanoma, 57.3 µM; in the experiment with MOLT-4 leukemia, 5.05 µM.
For `NNC(=S)N/N=C(\CC1OC(=O)c2ccccc21)c1ccccc1O` (stereo not given), the TGI with HCC-2998 colon was above 100 µM; in the experiment with OVCAR-4 ovarian, above 100 µM; in the experiment with A498 renal, 95.4 µM; in the experiment on IGROV1 ovarian, above 100 µM; in the experiment on NCI-H460 lung, above 100 µM; in the experiment on SK-OV-3 ovarian it was above 100 µM. The TGI is above 100 µM in the experiment on SK-MEL-2 melanoma, above 100 µM in the experiment with KM12 colon, 32.6 µM in the experiment with LOX IMVI melanoma and 75.6 µM in the experiment with MOLT-4 leukemia.
Turning to `Cc1ccc(NC(=O)C(=O)C(C(=O)c2ccc3ccccc3c2)C2OC(=O)c3ccccc32)cc1C` (stereo not given), the TGI in the experiment with HCC-2998 colon is 18.9 µM; in the experiment with OVCAR-4 ovarian, 40.6 µM; in the experiment with A498 renal, 31 µM; with IGROV1 ovarian, 64 µM; in the experiment with NCI-H460 lung, 51.4 µM; in the experiment on SK-OV-3 ovarian it was above 100 µM. The TGI is 36.3 µM with SK-MEL-2 melanoma, 47.1 µM in the experiment on KM12 colon, 32.8 µM in the experiment with LOX IMVI melanoma and 25.9 µM in the experiment on MOLT-4 leukemia.
Regarding `O=S1(=O)C[C@H](O)[C@H](O)CS1`, the TGI in the experiment with HCC-2998 colon, in the experiment with OVCAR-4 ovarian, in the experiment on A498 renal, in the experiment on IGROV1 ovarian, with NCI-H460 lung and in the experiment on SK-OV-3 ovarian was above 100 µM each time. For the same molecule, the TGI in the experiment with KM12 colon, with LOX IMVI melanoma and in the experiment with MOLT-4 leukemia was above 100 µM in each case.
For the molecule `NC(=O)NC1C(c2ccccc2)=C1c1ccccc1`, the TGI in the experiment with HCC-2998 colon turned out to be 35.8 µM; in the experiment with OVCAR-4 ovarian, 30.7 µM; in the experiment with A498 renal, 39.9 µM; with IGROV1 ovarian it was 28.4 µM; in the experiment on NCI-H460 lung it was 36 µM; in the experiment on SK-OV-3 ovarian, 38.2 µM. The TGI is 62.2 µM with KM12 colon, 38.4 µM in the experiment on LOX IMVI melanoma and 17.7 µM in the experiment with MOLT-4 leukemia.
Turning to `Cc1cc([N+](=O)[O-])ccc1Nc1cccc(Cl)c1C`, the TGI stood at 32.6 µM in the experiment on HCC-2998 colon; 31.4 µM in the experiment on OVCAR-4 ovarian; 29 µM in the experiment with A498 renal; 27.6 µM with IGROV1 ovarian; 47.7 µM in the experiment on SK-OV-3 ovarian; 29 µM in the experiment with SK-MEL-2 melanoma. The figures for the TGI with KM12 colon, in the experiment on LOX IMVI melanoma and in the experiment with MOLT-4 leukemia were 31 µM, 33.9 µM and 33 µM, respectively.
On to `COc1cc(C#CC(=O)OC/C=C/c2ccc3c(c2)OCO3)cc(OC)c1OC`, for which the TGI is 49.2 µM in the experiment on HCC-2998 colon; above 100 µM in the experiment on OVCAR-4 ovarian; 21.5 µM in the experiment on A498 renal; 77.1 µM with NCI-H460 lung; 68.6 µM in the experiment on SK-OV-3 ovarian; 25.4 µM with SK-MEL-2 melanoma. Further, the TGI in the experiment with KM12 colon was above 100 µM; in the experiment on LOX IMVI melanoma it was 47.3 µM.
On to `O=C(Nc1ccc(Cl)cc1F)c1ccccc1O`, for which the GI50 is 3.07 µM in the experiment on HCC-2998 colon; 2.75 µM in the experiment on OVCAR-4 ovarian; 2.22 µM with A498 renal; 1.43 µM in the experiment with IGROV1 ovarian; 3.21 µM in the experiment with NCI-H460 lung; 2.3 µM in the experiment on SK-MEL-2 melanoma. The GI50 in the experiment on KM12 colon was 2.97 µM; in the experiment on LOX IMVI melanoma it was 2.95 µM; with MOLT-4 leukemia it was 3.49 µM. Besides, the TGI was 13.1 µM with HCC-2998 colon; above 100 µM in the experiment with OVCAR-4 ovarian; 6.29 µM in the experiment with A498 renal; 64.3 µM in the experiment on IGROV1 ovarian; 19.7 µM in the experiment with NCI-H460 lung; 6.59 µM in the experiment with SK-MEL-2 melanoma. Further, the TGI in the experiment with KM12 colon is 20.3 µM; in the experiment with LOX IMVI melanoma, 10.4 µM; with MOLT-4 leukemia it was 13.5 µM.
Consider `C=C1CC[C@@H]2[C@](C)(COC(C)=O)[C@H](OC(C)=O)CC[C@@]2(C)[C@@H]1CC(Sc1ccccc1)C1=CCOC1=O` (stereo not given in full), for which the GI50 in the experiment with HCC-2998 colon was 2.1 µM; with OVCAR-4 ovarian, 1.36 µM; in the experiment on A498 renal it was 2.3 µM; in the experiment with NCI-H460 lung, 2.24 µM; in the experiment with SK-OV-3 ovarian it was 4.44 µM; in the experiment with SK-MEL-2 melanoma it was 2.25 µM. Moreover, the GI50 was 1.4 µM in the experiment with KM12 colon, 0.297 µM with LOX IMVI melanoma and 1.48 µM with MOLT-4 leukemia. Also, the TGI was determined as 4.07 µM in the experiment on HCC-2998 colon; 3.11 µM with OVCAR-4 ovarian; 14 µM with A498 renal; 6.03 µM with NCI-H460 lung; 16.8 µM in the experiment on SK-OV-3 ovarian; 4.59 µM with SK-MEL-2 melanoma. Further, the TGI worked out at 2.96 µM in the experiment on KM12 colon, 1.19 µM with LOX IMVI melanoma and 6.15 µM in the experiment with MOLT-4 leukemia.
